Test [1] deals with HMEC engineered to express c-Myc tagged with EGFP. In words: 3D spheroid assay, myc-HMEC (CellTiterGlo3D). The test is classed as cell-based. Particulars: Homo sapiens, 120 h, myc-HMEC, 5 days, read-out: 3D spheroid assay Code (EC50, myc-HMEC assay). How it is done:
(§1) Human mammary epithelial cells (HMEC) were engineered to express either c-Myc tagged with EGFP or EGFP alone (non myc) (analogous but distinct from Kessler J D et al, Science. 2012 Jan. 20; 335(6066):348-53. doi: 10.1126/science.1212728; Hsu T Y et al, Nature. 2015 Sep. 17; 525(7569):384-8. doi: 10.1038/nature14985). The engineered cells were seeded at 1000 (myc) or 4000 (non myc) cells/well in a 384 ultra-low attachment plate in a total volume of 40 μL HMEC cell culture media (DMEM/F12+10% HI-FBS+15 mM HEPES+0.5 ug/ml Hydrocortisone+10 ug/ml Insulin+20 ng/ml EGF). Plates were spun at 1200 rpm for 5 minutes at room temperature to ensure that cells have gathered in the middle of the well and incubated at 37° C. for 48 hrs before firing with compounds. On Day 2 (48 h post seeding) cells were imaged (brightfield and EGFP fluorescence) using the Celigo imaging cytometer prior to firing compounds. For primary screens, compounds were added at three concentrations (1.25, 10 and 30 uM) in a volume of 120 nL using the ECHO acoustic dispenser and spun at 2000 rpm for 2 minutes at room temperature before incubating at 37° C. for 5 days. […] On Day 7, prior to measuring cell viability using CellTiterGlo3D, cells were imaged (brightfield and EGFP fluorescence) on the Celigo imaging cytometer. The CellTiterGlo3D reagent is added at 30 uL/well and incubated at room temperature for 30 mins. After 30 mins of incubation, luminescence readings were recorded using the Perkin Elmer EnVision reader.
(ATP-based viability assays read luminescence as a measure of living cells.)

In test [2] the target is T1, Full length wild-type cereblon CRBN (Homo sapiens, UniProt Q96SW2).
T1 construct: Full length wild-type cereblon CRBN (80.0 nM, 10 μL) was incubated in assay buffer
As to the kind of experiment: Fluorescence polarization (FP) assay indicating cereblon binding. The note with it: read-out: IC50 value. A digest of the protocol: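 Full-length wild-type CRBN at 80.0 nM was preincubated 30 min at room temperature with compound (12-point curve, 300–0.937 or 3000–9.3 nM) in 20 mM HEPES pH 8.0, 150 NaCl, 0.5 mM TCEP, 0.05% Tween 20. Cy5-type thalidomide-based probe added at 5 nM final; FP read after 12 h (ex 590/em 675 nm), normalized to DMSO, IC50 fitted.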
On the technique in general: Fluorescence polarisation rises when a labelled molecule tumbles more slowly, as on binding a larger partner.

In test [3] the test system is HMEC engineered to express EGFP alone (non myc). In words: 3D spheroid assay, non myc-HMEC (CellTiterGlo3D). It is filed as cell-based. The note with it: Homo sapiens, 120 h, 5 days, read-out: 3D spheroid assay Code (EC50, non myc-HMEC assay). How it is done:
as §1

The target of test [4] is T2, GSPT1 (Homo sapiens, UniProt P15170+Q96SW2). As to the kind of experiment: GSPT1 degradation by Compound 345 in cancer cell lines (western blot). Set-up: endogenous in cells; host or cells: MM1 S (ATCC CRL-2974). It is filed as cell-based. Particulars: Compound 345 treated NSCLC lines plus Bortezomib 0.2 μM. How it is done: NCI-H1155 and ABC-1 were taken as representative of N-Myc positive NSCLC. NCI-H2023 and NCI-H441 as of N-Myc low representatives. 10A: western blotting analysis performed after 6 (NCI-H1155 and ABC-1) or 24 hr (NCI-H2023 and NCI-H441) posttreatment. […] 10B: corresponding densitometry analyses of GSPT1 normalized to GAPDH. DC50 and Dmax as indicated.
NCI-H1155 and ABC-1 were taken as representative of N-Myc high NSCLC. NCI-H2023 and NCI-H441 as of N-Myc low representatives. Left: densitometry analysis of GSPT1 normalized to GAPDH from western blotting following treatment with Compound 345 (as indicated). Right: 72 hr viability assay following treatment with Compound 345 as assessed by Cell Titer Glo. For both the GSPT1 expression plot and the cell viability plot, two Myc-driven cancer cell lines are represented by upright triangles and diamonds. Two non-Myc-driven cancer cell lines are represented by upside down triangles and circles.
NCI-H1155 and NCI-H2023 were taken as representative of N-Myc high and low NSCLC. 12A: western blot analysis probing for GSPT1 and N-Myc following treatment with Compound 345 (as indicated). Tubulin was used as a loading control. N-Myc could not be detected by western blotting in the NCI-H2023 line. 12B: Single-sample gene set enrichment analysis (ssGSEA) results for a Myc target gene set at 6 hours (left) and 24 hours (right) after treatment. ssGSEA scores were normalized to DMSOs for each cell line and averaged for three replicates. Error bars denote+/−1 s.d. across replicates.
NCI-H1836 and NCI-H1876 were taken as two representatives of L-Myc high SCLC. Western blot analysis probing for GSPT1 and L-Myc following treatment with Compound 345 as indicated. GAPDH was used as a loading control.
FIGS. 16A, 16B and 16C: Activity of Compound 345 in the c-Myc high multiple myeloma MM1S cell line. […] GAPDH was used as a loading control. […] Lenalidomide was used as a benchmark. 16C: Antiproliferative activity of Compound 345 (as indicated) following treatment with Compound 345 for 72 hr as assessed by Cell Titer Glo assay.
FIGS. 18A, 18B and 18C: Activity of Compound 345 in the c-Myc high WSU-DLCL2 lymphoma cell line. […] GAPDH was used as a loading control. 18B: Antiproliferative activity of Compound 345 (as indicated) following treatment with Compound 345 for 72 hr as assessed by Cell Titer Glo assay. […] Mice were dosed daily PO with vehicle or Compound 345 at 3, 10 mg/kg (as indicated). Tumor volumes were measured twice weekly. X-axis represents the number of days for treatment duration; y-axis represents mean tumor volume (in mm^3)±SEM. CHOP was used as a positive control for this model. Drug-free vehicle is represented by black circles; CHOP combination represented by light squares; Compound 345 3 mg/kg represented by triangles; Compound 345 10 mg/kg represented by dark squares.
FIGS. 19A, 19B, and 19C: Activity of Compound 345 in the c-Myc high DOHH-2 lymphoma cell line. […] GAPDH was used as a loading control. 19B: Antiproliferative activity of Compound 345 (as indicated) following treatment with Compound 345 for 72 hr as assessed by Cell Titer Glo assay. […] Mice were dosed daily PO with vehicle or Compound 345 at 3, 10 mg/kg (as indicated). Tumor volumes were measured twice weekly. X-axis represents the number of days for treatment duration; y-axis represents mean tumor volume (in mm^3)±SEM. CHOP was used as a positive control for this model.
Western blot analysis performed 24 hr post treatment initiation. GAPDH was used as a loading control. GSPT1 DC50 and Dmax as indicated.
On the technique in general: In western blotting, separated proteins are transferred to a membrane and probed.

Test [5] has as its target T2, GSPT1. As to the kind of experiment: GSPT1 degradation immunofluorescence assay in CAL-51 cells. It is filed as cell-based. On the set-up: endogenous in cells; host or cells: CAL-51 (DSMZ ACC302). Particulars: 6 hours, Table 4, read-out: Activity for GSPT1 degradation, Code (DC50). How it is done: CAL-51 cells were purchased from DSMZ (cat. Number ACC302), sub-cultured in 90% Dulbecco's MEM (4.5 g/L glucose, Gibco 11965)+10% heat inactivated FBS (BioConcept, 2-01F1361) and incubated at 37° C., 5% CO2. For the assay, imaging microtiterplate Cell Carrier 96 Ultra (Perkin Elmer 6055302) were pre-coated with Fibronectin (Sigma F085, 30 μl at 0.2 μg/ml) in PBS (100 μl, Gibco 14190) for 45 min at room temperature, rinsed with PBS and CAL-51 cells (30K cells/well) were plated and let to adhere overnight. Cells were treated with compounds typically using a serial dilution ranging from 30 μM to 0.1 nM for 6 hours. Compounds were stored at 10 mM DMSO stocks. Vehicle (DMSO), positive (CC-885, 10 μM) and rescue controls (positive control plus 0.2 μM bortezomib) were also included at this stage. Cells were subsequently rinsed with PBS and fixed in 10% Formalin solution (50 μl, Sigma HT5011)) for 20 mins at room temperature. Following three consecutive PBS washes (100 μl), cells were permeabilized in 0.1% Triton X-100 in PBS (Sigma 93443, 50 μl) for 15 mins at room temperature. Following three further PBS washes, 50 μl blocking buffer (1% BSA, Sigma A4503, in PBS) was added for 45 min for signal-to-noise reduction. Primary antibody (human GSPT1, Sigma HPA052488) was diluted in blocking buffer (dil. 1/300, 35 μl/well) and incubated with the cells overnight at 4° C. After three PBS washes, Alexa-fluor 488 coupled secondary antibodies (Invitrogen, A32731, dil. 1/1000), Alexa-fluor 647-Phalloidin (Invitrogen, A22287, dil. 1/200) and DAPI (Thermo, #62248, dil. 1/1000) were diluted in blocking buffer and incubated with the samples for 2 hours at room temperature. After three final PBS washes, samples were conserved in 100 μl PBS in the dark, until measurement. Image acquisition was performed on the Operetta High-Content Imager (Perkin-Elmer). Fluorescence intensity of Alexa-Fluor 488 (GSPT1), Alexa-Fluor 647 (Actin) and DAPI (Nucleus) were measured. For the determination of GSPT1 DC50 values, a custom algorithm implemented in the PerkinElmer image analysis software Harmony-Acapella® was developed. After user-defined setting of adjustment parameters, the analysis was run identically without human intervention for all image fields. DAPI staining of the nuclei was used to determine the location of cells using standard nuclei detection modules. Segmentation artifacts were removed by threshold-based filters for area, roundness and intensity. The outline of the cells was determined analogously from the sum of the normalized, smoothed DAPI and Actin channel, starting from each nucleus. The Alexa-Fluor 488 (GSPT1) signal intensity in each cell was finally measured, in order to obtain a Mean intensity per cell. GSPT1 degradation (DC50) was calculated after normalization to controls and data import in CDD vault Database, using non-linear regression.

Structures are written as SMILES. Read-outs that look alike come from different tables or passages of the source.

T1 sequence (Q96SW2 whole entry): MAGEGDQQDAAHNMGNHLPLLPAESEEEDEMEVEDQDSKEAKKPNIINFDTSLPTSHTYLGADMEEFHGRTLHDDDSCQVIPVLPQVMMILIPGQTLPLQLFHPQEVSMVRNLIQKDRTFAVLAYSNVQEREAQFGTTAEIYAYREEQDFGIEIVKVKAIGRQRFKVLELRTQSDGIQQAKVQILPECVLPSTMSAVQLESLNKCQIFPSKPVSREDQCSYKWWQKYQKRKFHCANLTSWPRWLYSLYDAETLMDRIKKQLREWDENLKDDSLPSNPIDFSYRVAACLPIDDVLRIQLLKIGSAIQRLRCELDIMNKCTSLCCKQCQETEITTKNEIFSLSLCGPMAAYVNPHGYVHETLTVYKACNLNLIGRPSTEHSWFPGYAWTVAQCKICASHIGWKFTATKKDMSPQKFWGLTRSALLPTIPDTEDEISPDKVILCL
T2 sequence (P15170 whole entry): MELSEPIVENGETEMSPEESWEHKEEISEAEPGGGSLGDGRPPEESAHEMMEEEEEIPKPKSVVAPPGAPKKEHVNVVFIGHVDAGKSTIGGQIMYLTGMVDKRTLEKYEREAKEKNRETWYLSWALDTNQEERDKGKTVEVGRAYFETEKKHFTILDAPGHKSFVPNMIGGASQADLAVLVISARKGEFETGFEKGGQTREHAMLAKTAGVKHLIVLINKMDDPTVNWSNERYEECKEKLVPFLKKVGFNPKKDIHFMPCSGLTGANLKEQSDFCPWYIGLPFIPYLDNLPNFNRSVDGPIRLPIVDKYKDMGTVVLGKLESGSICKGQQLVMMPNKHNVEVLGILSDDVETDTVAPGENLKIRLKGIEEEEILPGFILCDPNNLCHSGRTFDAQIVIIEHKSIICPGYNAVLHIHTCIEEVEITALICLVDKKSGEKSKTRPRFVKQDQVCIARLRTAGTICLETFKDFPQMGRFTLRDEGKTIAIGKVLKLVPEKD
T2 sequence (Q96SW2 whole entry): as the sequence (Q96SW2 whole entry) above
T2 sequence (Q16531 whole entry partner): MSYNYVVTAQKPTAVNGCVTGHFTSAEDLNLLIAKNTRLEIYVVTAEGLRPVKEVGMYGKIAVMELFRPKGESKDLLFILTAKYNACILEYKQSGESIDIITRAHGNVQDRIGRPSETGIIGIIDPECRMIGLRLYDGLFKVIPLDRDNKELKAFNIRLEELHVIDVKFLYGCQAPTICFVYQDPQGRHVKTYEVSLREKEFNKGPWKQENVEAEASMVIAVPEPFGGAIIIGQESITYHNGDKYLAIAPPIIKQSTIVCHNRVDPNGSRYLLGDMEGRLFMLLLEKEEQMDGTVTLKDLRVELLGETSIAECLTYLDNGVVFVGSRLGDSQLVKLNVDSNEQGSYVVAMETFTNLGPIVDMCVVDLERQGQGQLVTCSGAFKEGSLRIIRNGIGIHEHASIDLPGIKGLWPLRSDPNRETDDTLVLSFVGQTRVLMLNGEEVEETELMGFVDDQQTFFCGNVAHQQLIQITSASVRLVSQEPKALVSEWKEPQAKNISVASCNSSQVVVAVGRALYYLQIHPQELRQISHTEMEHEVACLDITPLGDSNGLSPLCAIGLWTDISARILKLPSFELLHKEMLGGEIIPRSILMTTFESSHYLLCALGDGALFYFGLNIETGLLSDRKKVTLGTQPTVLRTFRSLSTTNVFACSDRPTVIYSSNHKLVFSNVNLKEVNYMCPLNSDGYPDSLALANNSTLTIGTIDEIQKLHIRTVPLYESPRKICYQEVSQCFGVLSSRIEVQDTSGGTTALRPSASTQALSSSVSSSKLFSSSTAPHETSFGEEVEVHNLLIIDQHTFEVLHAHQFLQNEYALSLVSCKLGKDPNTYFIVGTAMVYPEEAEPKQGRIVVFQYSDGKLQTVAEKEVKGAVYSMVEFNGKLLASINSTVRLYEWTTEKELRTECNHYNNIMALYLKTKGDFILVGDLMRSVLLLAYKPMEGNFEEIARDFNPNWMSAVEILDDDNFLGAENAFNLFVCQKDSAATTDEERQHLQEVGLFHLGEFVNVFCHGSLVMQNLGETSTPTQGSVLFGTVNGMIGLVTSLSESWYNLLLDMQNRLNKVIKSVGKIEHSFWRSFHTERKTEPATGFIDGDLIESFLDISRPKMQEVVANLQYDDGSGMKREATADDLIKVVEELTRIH

As usually defined, the EC50 is the midpoint of the concentration-response curve. One may read the IC50 as the midpoint of a concentration-inhibition curve. `COc1ccccc1CNC(=O)NCc1ccc2c(c1)C(=O)N(C1CCC(=O)NC1=O)C2` (stereo not drawn) [Compound 60]: the concentration giving a half-maximal response (EC50) in test [1] is over 2000 nM; in test [3], over 10000 nM. Further, in test [2] (bounds stated), the IC50 is under 600 nM.

Turning to `CC(C)C[C@H](NC(=O)[C@H](Cc1ccccc1)NC(=O)c1cnccn1)B(O)O` [Bortezomib, reference compound], at GSPT1 [4], the “GSPT1 level with proteasome inhibitor added” value is on record as “rescued GSPT1 from degradation”.

One may read the DC50 as the concentration giving 50% degradation. `O=C1CCC(N2Cc3ccc(CNC(=O)Nc4ccc(Br)cc4)cc3C2=O)C(=O)N1` (stereo not drawn) [Compound 9]: the EC50 is over 2000 nM in test [1] and over 10000 nM in test [3]. The figures for the 50% inhibitory concentration (IC50) in test [2] (bound stated) and in test [2] (bounds stated) were under 1100 nM and under 600 nM, respectively. In addition, at GSPT1 [5], the DC50 is over 300 nM.

Turning to `COc1ccc(CCNC(=O)NCc2ccc3c(c2)C(=O)N(C2CCC(=O)NC2=O)C3)cc1` (stereo not drawn) [Compound 51], the EC50 in test [1] was over 2000 nM; in test [3], over 10000 nM. In addition, in test [2] (bounds stated), the IC50 is under 600 nM.

Source of the values: patent publication US20240261274A1, “TREATMENT OF MYC-DRIVEN CANCERS WITH GSPT1 DEGRADERS” (MONTE ROSA THERAPEUTICS, INC., priority 2021, published 2024).
